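Following 48 hours of exposure in 96-well plates, responses at five concentrations were used to interpolate endpoints linearly. The concentration for full growth arrest is given as TGI.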
How the values were obtained:
Assay in all cases: NCI anticancer screen, dose series, 48 h
786-0 renal = system: 786-0 renal
A498 renal = system: A498 renal
A549 NSCLC = system: A549 NSCLC
ACHN renal = system: ACHN renal
CAKI-1 renal = system: CAKI-1 renal
CCRF-CEM leukemia = system: CCRF-CEM leukemia
COLO 205 colon = system: COLO 205 colon
DLD-1 colon = system: DLD-1 colon
DMS 114 small cell lung = system: DMS 114 small cell lung
DMS 273 small cell lung = system: DMS 273 small cell lung
EKVX NSCLC = system: EKVX NSCLC
HCC-2998 colon = system: HCC-2998 colon
HCT-116 colon = system: HCT-116 colon
HCT-15 colon = system: HCT-15 colon
HL-60(TB) leukemia = system: HL-60(TB) leukemia
HOP-18 NSCLC = system: HOP-18 NSCLC
HOP-62 NSCLC = system: HOP-62 NSCLC
HOP-92 NSCLC = system: HOP-92 NSCLC
HT29 colon = system: HT29 colon
IGROV1 ovarian = system: IGROV1 ovarian
K-562 leukemia = system: K-562 leukemia
KM12 colon = system: KM12 colon
KM20L2 colon = system: KM20L2 colon
LXFL 529 NSCLC = system: LXFL 529 NSCLC
M14 melanoma = system: M14 melanoma
M19-MEL melanoma = system: M19-MEL melanoma
MALME-3M melanoma = system: MALME-3M melanoma
MOLT-4 leukemia = system: MOLT-4 leukemia
NCI-H226 lung = system: NCI-H226 lung
NCI-H23 lung = system: NCI-H23 lung
NCI-H460 lung = system: NCI-H460 lung
NCI-H522 lung = system: NCI-H522 lung
OVCAR-3 ovarian = system: OVCAR-3 ovarian
OVCAR-4 ovarian = system: OVCAR-4 ovarian
OVCAR-5 ovarian = system: OVCAR-5 ovarian
OVCAR-8 ovarian = system: OVCAR-8 ovarian
RPMI-8226 leukemia = system: RPMI-8226 leukemia
RXF 393 renal = system: RXF 393 renal
SF-268 CNS = system: SF-268 CNS
SF-295 CNS = system: SF-295 CNS
SF-539 CNS = system: SF-539 CNS
SK-MEL-2 melanoma = system: SK-MEL-2 melanoma
SK-MEL-28 melanoma = system: SK-MEL-28 melanoma
SK-MEL-5 melanoma = system: SK-MEL-5 melanoma
SK-OV-3 ovarian = system: SK-OV-3 ovarian
SN12C renal = system: SN12C renal
SNB-19 CNS = system: SNB-19 CNS
SNB-75 CNS = system: SNB-75 CNS
SNB-78 CNS = system: SNB-78 CNS
SR leukemia = system: SR leukemia
SW-620 colon = system: SW-620 colon
TK-10 renal = system: TK-10 renal
U251 CNS = system: U251 CNS
UACC-257 melanoma = system: UACC-257 melanoma
UACC-62 melanoma = system: UACC-62 melanoma
UO-31 renal = system: UO-31 renal
XF 498 CNS = system: XF 498 CNS
LOX IMVI melanoma = system: LOX IMVI melanoma

Cc1cccc(C)c1NC(=O)CCC(=O)CC(=O)C(C)C was tested, and the TGI (786-0 renal) was > 100 µM, the TGI (A498 renal) was > 100 µM and the TGI (A549 NSCLC) was > 100 µM. For the same compound, the TGI (ACHN renal) was > 100 µM, the TGI (CAKI-1 renal) was > 100 µM and the TGI (CCRF-CEM leukemia) was > 100 µM. The TGI (COLO 205 colon) was > 100 µM, the TGI (DLD-1 colon) was > 100 µM and the TGI (DMS 114 small cell lung) was > 100 µM. The TGI (DMS 273 small cell lung) was > 100 µM, the TGI (EKVX NSCLC) was > 100 µM and the TGI (HCC-2998 colon) was > 100 µM. For the same compound, the TGI (HCT-116 colon) was > 100 µM, the TGI (HCT-15 colon) was > 100 µM and the TGI (HL-60(TB) leukemia) was > 100 µM. For the same compound, the TGI (HOP-18 NSCLC) was > 100 µM, the TGI (HOP-62 NSCLC) was > 100 µM and the TGI (HOP-92 NSCLC) was > 100 µM. For the same compound, the TGI (HT29 colon) was > 100 µM, the TGI (IGROV1 ovarian) was > 100 µM and the TGI (K-562 leukemia) was > 100 µM. The TGI (KM12 colon) was > 100 µM, the TGI (KM20L2 colon) was > 100 µM and the TGI (LXFL 529 NSCLC) was > 100 µM. For the same compound, the TGI (M14 melanoma) was > 100 µM, the TGI (M19-MEL melanoma) was > 100 µM and the TGI (MALME-3M melanoma) was > 100 µM. For the same compound, the TGI (MOLT-4 leukemia) was > 100 µM, the TGI (NCI-H226 lung) was > 100 µM and the TGI (NCI-H23 lung) was > 100 µM. The TGI (NCI-H460 lung) was > 100 µM, the TGI (NCI-H522 lung) was > 100 µM and the TGI (OVCAR-3 ovarian) was > 100 µM. The TGI (OVCAR-4 ovarian) was > 100 µM, the TGI (OVCAR-5 ovarian) was > 100 µM and the TGI (OVCAR-8 ovarian) was > 100 µM. For the same compound, the TGI (RPMI-8226 leukemia) was > 100 µM, the TGI (RXF 393 renal) was > 100 µM and the TGI (SF-268 CNS) was > 100 µM. For the same compound, the TGI (SF-295 CNS) was > 100 µM, the TGI (SF-539 CNS) was > 100 µM and the TGI (SK-MEL-2 melanoma) was > 100 µM. The TGI (SK-MEL-28 melanoma) was > 100 µM, the TGI (SK-MEL-5 melanoma) was > 100 µM and the TGI (SK-OV-3 ovarian) was > 100 µM. The TGI (SN12C renal) was > 100 µM, the TGI (SNB-19 CNS) was > 100 µM and the TGI (SNB-75 CNS) was > 100 µM. The TGI (SNB-78 CNS) was > 100 µM, the TGI (SR leukemia) was > 100 µM and the TGI (SW-620 colon) was > 100 µM. For the same compound, the TGI (TK-10 renal) was > 100 µM, the TGI (U251 CNS) was > 100 µM and the TGI (UACC-257 melanoma) was > 100 µM. The TGI (UACC-62 melanoma) was > 100 µM, the TGI (UO-31 renal) was > 100 µM and the TGI (XF 498 CNS) was > 100 µM.

CC(C)C(=O)N1C(=O)O[C@@H](c2ccccc2)[C@H]1C was tested, and the TGI (786-0 renal) was > 100 µM, the TGI (A498 renal) was > 100 µM and the TGI (A549 NSCLC) was > 100 µM. For the same compound, the TGI (ACHN renal) was > 100 µM, the TGI (CAKI-1 renal) was 97.9 µM and the TGI (CCRF-CEM leukemia) was > 100 µM. For the same compound, the TGI (COLO 205 colon) was > 100 µM, the TGI (DLD-1 colon) was > 100 µM and the TGI (DMS 114 small cell lung) was > 100 µM. For the same compound, the TGI (DMS 273 small cell lung) was > 100 µM, the TGI (EKVX NSCLC) was > 100 µM and the TGI (HCC-2998 colon) was > 100 µM. For the same compound, the TGI (HCT-116 colon) was > 100 µM, the TGI (HCT-15 colon) was > 100 µM and the TGI (HL-60(TB) leukemia) was > 100 µM. For the same compound, the TGI (HOP-18 NSCLC) was > 100 µM, the TGI (HOP-62 NSCLC) was > 100 µM and the TGI (HOP-92 NSCLC) was > 100 µM. The TGI (HT29 colon) was > 100 µM, the TGI (IGROV1 ovarian) was > 100 µM and the TGI (K-562 leukemia) was > 100 µM. The TGI (KM12 colon) was > 100 µM, the TGI (KM20L2 colon) was > 100 µM and the TGI (LOX IMVI melanoma) was > 100 µM. The TGI (LXFL 529 NSCLC) was > 100 µM, the TGI (M14 melanoma) was > 100 µM and the TGI (M19-MEL melanoma) was > 100 µM. The TGI (MALME-3M melanoma) was > 100 µM, the TGI (MOLT-4 leukemia) was > 100 µM and the TGI (NCI-H226 lung) was > 100 µM. For the same compound, the TGI (NCI-H23 lung) was > 100 µM, the TGI (NCI-H460 lung) was > 100 µM and the TGI (NCI-H522 lung) was > 100 µM. For the same compound, the TGI (OVCAR-3 ovarian) was > 100 µM, the TGI (OVCAR-4 ovarian) was > 100 µM and the TGI (OVCAR-5 ovarian) was > 100 µM. For the same compound, the TGI (OVCAR-8 ovarian) was > 100 µM, the TGI (RPMI-8226 leukemia) was > 100 µM and the TGI (RXF 393 renal) was > 100 µM. For the same compound, the TGI (SF-268 CNS) was > 100 µM, the TGI (SF-295 CNS) was > 100 µM and the TGI (SF-539 CNS) was > 100 µM. For the same compound, the TGI (SK-MEL-2 melanoma) was > 100 µM, the TGI (SK-MEL-28 melanoma) was > 100 µM and the TGI (SK-MEL-5 melanoma) was > 100 µM. The TGI (SK-OV-3 ovarian) was > 100 µM, the TGI (SN12C renal) was > 100 µM and the TGI (SNB-19 CNS) was > 64.7 µM. For the same compound, the TGI (SNB-75 CNS) was > 100 µM, the TGI (SNB-78 CNS) was > 100 µM and the TGI (SR leukemia) was > 100 µM. For the same compound, the TGI (SW-620 colon) was > 100 µM, the TGI (TK-10 renal) was > 100 µM and the TGI (U251 CNS) was > 100 µM. For the same compound, the TGI (UACC-257 melanoma) was > 100 µM, the TGI (UACC-62 melanoma) was > 100 µM and the TGI (UO-31 renal) was > 100 µM. For the same compound, the TGI (XF 498 CNS) was > 100 µM.

Source: PubChem BioAssay (NCI)
